The target in assay [1] is T1, delF508-CFTR-HRP (Homo sapiens, UniProt P13569, DEL508-508).
T1 construct: expressed in transfected cells
The assay can be described thus: Measurement of delF508-CFTR-HRP surface expression in CFBE41o- cells (HRP luminescence).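 For DelF508-CFTR-HRP Amax %: percent efficacy relative to a reference CFTR corrector compound.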 The class given is cell-based. Conditions: for Emax: CFBE41o-, read-out: DelF508-CFTR-HRP Amax %; for EC50: mean of at least two replicates. The essentials:
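EC50 derived by logistic regression of triplicate surface-HRP luminescence, plate-normalized to the lowest-concentration median. Doxycycline (500 ng/mL, 48 h) induced delF508-CFTR-HRP in CFBE41o- cells; compounds then applied 24 h at 37° C, 10 μM top, 3-fold over 10 points.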

For assay [2], the target named is T2, delF508-CFTR (Homo sapiens, UniProt P13569, DEL508-508).
T2 construct: functional activity of the CFTR channel (Chloride ion transport) in patient derived primary human bronchial epithelial cells; host or cells: patient-derived primary human bronchial epithelial cells (HBECs), delF508-CFTR
The assay can be described thus: delF508-CFTR functional activity in primary human bronchial epithelial cells (HBECs), Multi-Transepithelial Clamp Circuit (MTECC-24) assay, equivalent short circuit current. Type of assay: cell-based. Conditions: primary CF HBECs; for MTECC24 CFHBEC-Amax %: relative to reference combination 2 μM 3-(6-(1-(2,2-difluorobenzo[d][1,3]dioxol-5-yl)cyclopropane-1-carboxamido)-3-methylpyridin-2-yl)benzoic acid (24 h) + 0.5 μM N-(2,4-di-tert-butyl-5-hydroxyphenyl)-4-oxo-1,4-dihydroquinoline-3-carboxamide; for EC50: test compound added 24 h before assay, potentiator (S)-3-amino-6-methoxy-N-(3,3,3-trifluoro-2-hydroxy-2-methylpropyl)-5-(trifluoromethyl)picolinamide present at assay, mean of at least two replicates, read-out: MTECC24 CFHBEC-EC50. A digest of the protocol:
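Compound acted as corrector on differentiated primary delF508-CFTR bronchial cultures, first 24 h basolaterally, then 45 min both sides before reading. Equivalent short circuit current was recorded during sequential forskolin and potentiator addition. EC50 came from 10-point, 1-in-3 dilution curves against the 0.1% DMSO baseline.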

The structures appear in SMILES notation.

T1 sequence (P13569 with tags, fused parts or gaps DEL508-508): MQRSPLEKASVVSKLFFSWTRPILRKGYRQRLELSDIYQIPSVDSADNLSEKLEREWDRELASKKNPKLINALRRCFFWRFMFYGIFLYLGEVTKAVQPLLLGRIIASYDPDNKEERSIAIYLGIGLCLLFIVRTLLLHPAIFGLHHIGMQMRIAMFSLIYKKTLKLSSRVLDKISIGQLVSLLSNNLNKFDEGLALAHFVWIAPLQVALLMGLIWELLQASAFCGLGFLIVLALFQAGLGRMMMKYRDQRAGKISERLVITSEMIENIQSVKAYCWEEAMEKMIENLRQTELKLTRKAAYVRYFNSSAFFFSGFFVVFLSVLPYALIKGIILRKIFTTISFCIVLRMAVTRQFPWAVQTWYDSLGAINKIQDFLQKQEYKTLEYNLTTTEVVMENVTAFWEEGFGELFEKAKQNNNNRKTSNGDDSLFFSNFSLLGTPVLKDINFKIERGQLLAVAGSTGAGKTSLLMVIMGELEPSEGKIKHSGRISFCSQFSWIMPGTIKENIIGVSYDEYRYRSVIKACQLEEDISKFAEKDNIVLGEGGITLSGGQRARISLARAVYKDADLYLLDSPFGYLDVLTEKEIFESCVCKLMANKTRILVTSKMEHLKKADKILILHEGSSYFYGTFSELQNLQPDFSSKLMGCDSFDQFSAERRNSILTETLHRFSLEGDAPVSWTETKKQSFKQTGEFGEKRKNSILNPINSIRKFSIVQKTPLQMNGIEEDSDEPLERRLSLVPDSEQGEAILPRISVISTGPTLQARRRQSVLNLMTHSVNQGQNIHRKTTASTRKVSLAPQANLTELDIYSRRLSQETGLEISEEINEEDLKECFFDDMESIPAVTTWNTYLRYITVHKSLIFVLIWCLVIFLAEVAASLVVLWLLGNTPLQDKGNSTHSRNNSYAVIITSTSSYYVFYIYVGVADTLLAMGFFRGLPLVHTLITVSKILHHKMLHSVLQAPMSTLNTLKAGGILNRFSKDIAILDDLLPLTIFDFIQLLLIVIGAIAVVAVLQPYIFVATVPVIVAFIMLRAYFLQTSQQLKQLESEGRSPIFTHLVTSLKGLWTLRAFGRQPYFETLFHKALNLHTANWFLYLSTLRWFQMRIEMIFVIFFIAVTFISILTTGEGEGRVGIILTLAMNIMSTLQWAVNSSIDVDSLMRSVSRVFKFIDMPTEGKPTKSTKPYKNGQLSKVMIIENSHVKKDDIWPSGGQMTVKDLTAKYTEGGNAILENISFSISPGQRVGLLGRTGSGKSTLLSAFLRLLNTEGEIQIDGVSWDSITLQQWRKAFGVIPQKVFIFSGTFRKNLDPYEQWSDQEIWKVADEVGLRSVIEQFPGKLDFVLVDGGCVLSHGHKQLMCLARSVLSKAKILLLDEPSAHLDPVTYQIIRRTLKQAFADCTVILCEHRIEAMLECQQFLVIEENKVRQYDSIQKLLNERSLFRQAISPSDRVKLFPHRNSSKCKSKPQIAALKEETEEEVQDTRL
T2 sequence (P13569 with tags, fused parts or gaps DEL508-508): as above

With `Cc1ccc(C2CCCCC2)c(OC2(C(=O)NS(=O)(=O)c3cccc(N4CCC(CF)(NC(=O)OC(C)(C)C)CC4)n3)CC2)c1` [Example 2-42, Tert-butyl (1-(6-(N-(1-(2-cyclohexyl-5-methylphenoxy)cyclopropanecarbonyl)sulfamoyl)pyridin-2-yl)-4-(fluoromethyl)piperidin-4-yl)carbamate], in assay [1], the Emax was found to be 284% and the EC50 came out at 880 nM. In addition, in assay [2], the “MTECC24 CFHBEC-Amax %” value is listed as 90% and the EC50 was determined as 6 nM.
Taken in the same sequence, the figures for `Cc1ccc(C2CCCCC2)c(OC2(C(=O)NS(=O)(=O)c3cccc(N4CCN(c5ccc(F)cc5)CC4)n3)CC2)c1` [Example 2-55, 1-(2-Cyclohexyl-5-methylphenoxy)-N-((6-(4-(4-fluorophenyl)piperazin-1-yl)pyridin-2-yl)sulfonyl)cyclopropane-1-carboxamide] were 512%, 640 nM, 91% and 13 nM.
`Cc1ccc(C2CCCCC2)c(OC2(C(=O)NS(=O)(=O)c3cccc(NC[C@@H](C)O)n3)CC2)c1` [Example 2-46, (R)-1-(2-cyclohexyl-5-methylphenoxy)-N-((6-((2-hydroxypropyl)amino)pyridin-2-yl)sulfonyl)cyclopropane-1-carboxamide]: in assay [1], the Emax worked out at 813% and the EC50 stood at 2860 nM. In assay [2], the “MTECC24 CFHBEC-Amax %” value was determined as 89% and the EC50 amounted to 3 nM.
In the same order, the values of `Cc1ccc(C2CCCCC2)c(OC2(C(=O)NS(=O)(=O)c3cccc(N4CC5(CCN5C(=O)OC(C)(C)C)C4)n3)CC2)c1` [Example 2-30, Tert-butyl 6-(6-(N-(1-(2-cyclohexyl-5-methylphenoxy)cyclopropanecarbonyl)sulfamoyl)pyridin-2-yl)-1,6-diazaspiro[3.3]heptane-1-carboxylate] are 243%, 1790 nM, 69% and 23 nM.
Taken in the same sequence, the figures for `CC1(C)CCN(c2ccc(Cl)cc2OC2(C(=O)NS(=O)(=O)c3cccc(N4CCC(O)(c5cccc(C(F)(F)F)c5)CC4)n3)CC2)CC1` [Example 10-2, 1-(5-chloro-2-(4,4-dimethylpiperidin-1-yl)phenoxy)-N-((6-(4-hydroxy-4-(3-(trifluoromethyl)phenyl)piperidin-1-yl)pyridin-2-yl)sulfonyl)cyclopropanecarboxamide] were 746%, 460 nM, 161.6% and 182 nM.
Taken in the same sequence, the figures for `Cc1ccc(C2CCCCC2)c(OC2(C(=O)NS(=O)(=O)c3cccc(N4CCNC(=O)C4)n3)CC2)c1` [Example 2-33, 1-(2-Cyclohexyl-5-methylphenoxy)-N-((6-(3-oxopiperazin-1-yl)pyridin-2-yl)sulfonyl)cyclopropanecarboxamide] were 114%, 3960 nM, 46% and 66 nM.

The values are drawn from US20220033407A1, “N-(pyridin-2-ylsulfonyl)cyclopropanecarboxamide Derivatives and their Use in the Treatment of Disease” (NOVARTIS AG, priority 2018, published 2022).
